# Source: article PMC4965013, “Open Source Drug Discovery with the Malaria Box Compound Collection for Neglected Diseases and Beyond” (PLoS Pathogens, 2016)
# What was measured:
# P. falciparum = assay: EC50 listed in S2 Table Metabolomics (used to set the concentration tested); assay type: cell-based; details: Plasmodium falciparum; EC50 used for Factor_XEC50 in metabolomics; read-out: EC50_nM
# [1] = tested on: P. falciparum 3D7 trophozoites; assay: Metabolomic fingerprint profiling LC-MS; assay type: cell-based, Plasmodium falciparum; design: UDP-D-glucose / ADP-D-glucose: unit not given here; details: for Acetyllysine / N-acetyl-L-ornithine / N-carbamoyl-L-aspartate / NADPH / dAMP / dCMP / dTDP / dTMP / dTTP / dihydroorotate / orotate / DLH / DLS/SDL/SID / PD / PEE / PVNF / 3-phosphoglycerate / ADP-D-glucose / ATP / CDP / D-sedoheptulose-1/7-phosphate / FAD / GMP / NAD+ / NADP+ / Octoluse Bisphosphate / Pyroglutamic acid / UDP-D-glucose / UDP-D-glucuronate / UDP-N-acetyl-glucosamine / UDP / UMP / UTP / a-ketoglutarate / citrate/isocitrate / cytidine / dATP / dGMP/AMP / fumarate / glucose-1/6-phosphate / glycerate / guanine / guanosine / hypoxanthine / indole / inosine / nicotinate / ornithine / phosphoenolpyruvate / pyruvate / ribose-phosphate / sarcosine/alanine / sn-glycerol-3-phosphate / succinate/methylmalonic acid / uridine / xanthosine: S2 Table Metabolomics; for Acetyllysine: metabolite Acetyllysine; for N-acetyl-L-ornithine: metabolite N-acetyl-L-ornithine; for N-carbamoyl-L-aspartate: metabolite N-carbamoyl-L-aspartate; for NADPH: metabolite NADPH; for dAMP: metabolite dAMP; for dCMP: metabolite dCMP; for dTDP: metabolite dTDP; for dTMP: metabolite dTMP; for dTTP: metabolite dTTP; for dihydroorotate: metabolite dihydroorotate; for orotate: metabolite orotate; for DLH: peptide DLH; for DLS/SDL/SID: peptide DLS/SDL/SID; for PD: peptide PD; for PEE: peptide PEE; for PVNF: peptide PVNF; for 3-phosphoglycerate: metabolite 3-phosphoglycerate; for ADP-D-glucose: metabolite ADP-D-glucose; for ATP: metabolite ATP; for CDP: metabolite CDP; for CDP / D-sedoheptulose-1/7-phosphate / GMP / Octoluse Bisphosphate / UDP / UMP / UTP / citrate/isocitrate / dGMP/AMP / fumarate / glucose-1/6-phosphate / glycerate / guanine / guanosine / inosine / pyruvate / sarcosine/alanine / succinate/methylmalonic acid / uridine / xanthosine: change in metabolite level after compound treatment; for D-sedoheptulose-1/7-phosphate: metabolite D-sedoheptulose-1/7-phosphate; for FAD: metabolite FAD; for GMP: metabolite GMP; for NAD+: metabolite NAD+; for NADP+: metabolite NADP+; for Octoluse Bisphosphate: metabolite Octoluse Bisphosphate; for Pyroglutamic acid: metabolite Pyroglutamic acid; for UDP-D-glucose: metabolite UDP-D-glucose; for UDP-D-glucuronate: metabolite UDP-D-glucuronate; for UDP-N-acetyl-glucosamine: metabolite UDP-N-acetyl-glucosamine; for UDP: metabolite UDP; for UMP: metabolite UMP; for UTP: metabolite UTP; for a-ketoglutarate: metabolite a-ketoglutarate; for citrate/isocitrate: metabolite citrate/isocitrate; for cytidine: metabolite cytidine; for dATP: metabolite dATP; for dGMP/AMP: metabolite dGMP/AMP; for fumarate: metabolite fumarate; for glucose-1/6-phosphate: metabolite glucose-1/6-phosphate; for glycerate: metabolite glycerate; for guanine: metabolite guanine; for guanosine: metabolite guanosine; for hypoxanthine: metabolite hypoxanthine; for indole: metabolite indole; for inosine: metabolite inosine; for 2_3-Diphosphoglyceric acid / 4-phosphopantothenate / 6-phospho-D-gluconate / FMN / IMP / Pyrophosphate / Sedoheptoluse bisphosphate / cyclic-AMP / glutathione disulfide / lactate / myo-inositol: metabolite level change after treatment; for nicotinate: metabolite nicotinate; for ornithine: metabolite ornithine; for phosphoenolpyruvate: metabolite phosphoenolpyruvate; for pyruvate: metabolite pyruvate; for ribose-phosphate: metabolite ribose-phosphate; for sarcosine/alanine: metabolite sarcosine/alanine; for sn-glycerol-3-phosphate: metabolite sn-glycerol-3-phosphate; for succinate/methylmalonic acid: metabolite succinate/methylmalonic acid; for uridine: metabolite uridine; for xanthosine: metabolite xanthosine
# PfEg5 = tested on: PfEg5; design: method as in ref [29] (a number printed in a supplementary file, which may have a reference list of its own: not looked up in the article's list); details: ref [29]; cited from earlier work
# PvEg5 = tested on: PvEg5; design: method as in ref [29] (a number printed in a supplementary file, which may have a reference list of its own: not looked up in the article's list); details: ref [29]; cited from earlier work
# dUTPase = target: T1, dUTPase (Plasmodium falciparum, UniProt Q8II92); assay: Bioaffinity Mass Spectrometry Screening, dUTPase; assay type: binding; details: compound:protein ~5:1
# T1 construct: […]; made in house
# Protocol: (§1) Bioaffinity Mass Spectrometry Screening Method
# (§2) Recombinant proteins were prepared by the Van Voorhis group according to the same protocol as in [25]. Proteins were buffer-exchanged into a suitable volatile buffer (ammonium acetate or ammonium bicarbonate) for native ESI-MS. Depending on the protein, the buffer and its concentration is chosen to obtain the highest sensitivity in the mass spectrometer. We have chosen ammonium acetate buffer (10mM, pH 7) for these two proteins, dUTPase and 6-Phosphogluconolactonase.
# (§3) High-resolution Fourier transform mass spectrometry (FTMS) can identify the molecular weight of the bound ligand. The difference between the mass-to-charge ratio (Δm/z) for the unbound protein and the [protein-bound ligand] complex ions was multiplied by the charge state (z) to directly afford the molecular weight of the bound ligand, using the following equation.
# (§4) The BMSS assay was performed on 400 Malaria Box compounds against 25 Plasmodium falciparum proteins, which are critical in malaria cell growth and invasion. Pools of eight Malaria Box compounds (each compound 1 µL, 1 mM in methanol) were incubated with a P. falciparum protein one hour at room temperature. When a non-covalent complex was found, the molecular weight of the binding compound was deducted from the spectrum. On the basis of this information, a binding confirmation on the selected compound was performed. […]
# PfCDPK4 = details: ref [25]; cited from earlier work
# P. falciparum HDAC1 = P. falciparum HDAC1 (Plasmodium falciparum, UniProt Q7K6A1); assay: PfHDAC1 HDAC glo I/II; assay type: biochemical; details: 50nM
# [2] = tested on: Schistosoma mansoni schistosomula (somules); assay: S. mansoni somules phenotypic screen Caffrey; details: 2.5 µM, 48 h
# [3] = tested on: S. mansoni newly transformed schistosomula (NTS); design: method as in ref [91] (a number printed in a supplementary file, which may have a reference list of its own: not looked up in the article's list); details: ref [91]; read-out: Schistosoma mansoni newly transformed schistosomula EC50 J. Keiser; cited from earlier work
# [4] = tested on: Schistosoma mansoni adult males; assay: S. mansoni adult phenotypic and motility screen Caffrey
# S. mansoni adult worms = tested on: S. mansoni adult worms; design: method as in ref [91] (a number printed in a supplementary file, which may have a reference list of its own: not looked up in the article's list); details: ref [91]; read-out: Schistosoma mansoni adult worm EC50 J. Keiser; cited from earlier work
# [5] = tested on: P. falciparum W2 apicoplast; details: ref [60]; cited from earlier work
# [6] = target: T2, 6-Phosphogluconolactonase (Plasmodium falciparum, UniProt Q8IKU0); assay: Bioaffinity Mass Spectrometry Screening, 6-Phosphogluconolactonase; assay type: binding; details: compound:protein ~5:1
# T2 construct: […]; His6 with linker ([…]) (N); made in house
# Protocol: as §1, §2, §3, §4
# [7] = tested on: P. falciparum Dd2 apicoplast; details: ref [61]; cited from earlier work
# T1 sequence (Q8II92 whole entry, added parts left off): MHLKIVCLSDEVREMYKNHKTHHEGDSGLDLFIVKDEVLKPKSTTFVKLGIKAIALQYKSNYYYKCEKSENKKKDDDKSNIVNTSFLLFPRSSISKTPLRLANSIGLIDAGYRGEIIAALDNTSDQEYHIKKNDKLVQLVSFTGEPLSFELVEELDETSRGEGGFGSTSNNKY
# T2 sequence (Q8IKU0 1-327): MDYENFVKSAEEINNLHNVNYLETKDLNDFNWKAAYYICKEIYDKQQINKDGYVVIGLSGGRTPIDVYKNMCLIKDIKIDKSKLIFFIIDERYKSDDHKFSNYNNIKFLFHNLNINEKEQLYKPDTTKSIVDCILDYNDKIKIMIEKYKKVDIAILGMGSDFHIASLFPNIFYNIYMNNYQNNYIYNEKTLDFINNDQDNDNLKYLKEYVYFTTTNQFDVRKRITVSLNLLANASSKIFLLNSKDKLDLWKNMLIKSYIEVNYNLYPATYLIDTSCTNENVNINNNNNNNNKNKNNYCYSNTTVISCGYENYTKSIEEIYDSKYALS
# Sequence of P. falciparum HDAC1 (Q7K6A1 entry or part of it): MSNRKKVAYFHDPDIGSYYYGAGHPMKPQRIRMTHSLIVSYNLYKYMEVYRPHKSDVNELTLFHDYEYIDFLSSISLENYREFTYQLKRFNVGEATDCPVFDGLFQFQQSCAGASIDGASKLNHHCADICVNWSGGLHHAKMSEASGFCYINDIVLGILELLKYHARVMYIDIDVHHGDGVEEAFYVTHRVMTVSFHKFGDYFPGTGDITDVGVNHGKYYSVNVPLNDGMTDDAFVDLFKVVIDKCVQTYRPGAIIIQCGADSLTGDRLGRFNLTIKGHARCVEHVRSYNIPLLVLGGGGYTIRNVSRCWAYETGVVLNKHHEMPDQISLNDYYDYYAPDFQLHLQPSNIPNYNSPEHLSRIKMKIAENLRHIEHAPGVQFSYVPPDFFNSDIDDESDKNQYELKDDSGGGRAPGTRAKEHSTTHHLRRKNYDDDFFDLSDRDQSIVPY
smiles,measurement,setting,value
COc1cccc(C=Cc2nc(=O)c3ccccc3o2)c1OC [MMV666693],EC50,P. falciparum,23.8 nM
same,Acetyllysine,[1],0.1397
same,N-acetyl-L-ornithine,[1],0.2363
same,N-carbamoyl-L-aspartate,[1],3.172
same,NADPH,[1],0.2825
same,dAMP,[1],-0.08701
same,dCMP,[1],0.2474
same,dTDP,[1],-0.7354
same,dTMP,[1],-0.4318
same,dTTP,[1],-0.1932
same,dihydroorotate,[1],3.894
same,orotate,[1],-0.9184
same,DLH,[1],-0.06293
same,DLS/SDL/SID,[1],-0.09731
same,PD,[1],0.5949
same,PEE,[1],-0.05317
same,PVNF,[1],-0.1239
same,3-phosphoglycerate,[1],0.2329
same,ADP-D-glucose,[1],0.3504
same,ATP,[1],0.6585
same,CDP,[1],-0.7718
same,D-sedoheptulose-1/7-phosphate,[1],0.3935
same,FAD,[1],0.6886
same,GMP,[1],2.325
same,NAD+,[1],0.3862
same,NADP+,[1],0.1667
same,Octoluse Bisphosphate,[1],0.214
same,Pyroglutamic acid,[1],-0.09945
same,UDP-D-glucose,[1],0.3609
same,UDP-D-glucuronate,[1],0.4012
same,UDP-N-acetyl-glucosamine,[1],0.3198
same,UDP,[1],-0.8743
same,UMP,[1],-0.7276
same,UTP,[1],-0.635
same,a-ketoglutarate,[1],-0.04301
same,citrate/isocitrate,[1],-0.1473
same,cytidine,[1],0.3511
same,dATP,[1],0.7712
same,dGMP/AMP,[1],-0.2164
same,fumarate,[1],0.7025
same,glucose-1/6-phosphate,[1],0.5191
same,glycerate,[1],-0.06297
same,guanine,[1],0.6599
same,guanosine,[1],0.8246
same,hypoxanthine,[1],0.08871
same,indole,[1],0.0369
same,inosine,[1],0.4625
same,2_3-Diphosphoglyceric acid,[1],0.5942
same,4-phosphopantothenate,[1],0.0573
same,6-phospho-D-gluconate,[1],0.4861
same,FMN,[1],0.3054
same,IMP,[1],0.1618
same,Pyrophosphate,[1],0.3262
same,Sedoheptoluse bisphosphate,[1],0.378
same,cyclic-AMP,[1],0.4484
same,glutathione disulfide,[1],0.6375
same,lactate,[1],0.2118
same,myo-inositol,[1],0.3466
same,nicotinate,[1],0.3154
same,ornithine,[1],0.1755
same,phosphoenolpyruvate,[1],0.1481
same,pyruvate,[1],-0.005171
same,ribose-phosphate,[1],0.3602
same,sarcosine/alanine,[1],0.4257
same,sn-glycerol-3-phosphate,[1],0.6187
same,succinate/methylmalonic acid,[1],0.3609
same,uridine,[1],-0.1766
same,xanthosine,[1],0.5199
same,PfEg5 ATPase inhibition in words,PfEg5,selective inhibitor
same,PvEg5 ATPase inhibition in words,PvEg5,selective inhibitor
O=c1nc(C=Cc2ccc(Br)cc2)oc2ccccc12 [MMV666599],binding to dUTPase (confirmation),dUTPase,binding
same,IC50,PfCDPK4,700 nM
CC(/C=C/C(=O)NO)=C\[C@@H](C)C(=O)c1ccc(N(C)C)cc1 [trichostatin A],PfHDAC1 % inhibition,P. falciparum HDAC1,89.9 ± 0.5%
O=C(C1CCCCC1)N1CC(=O)N2CCc3ccccc3C2C1 (centres unmarked) [Praziquantel],somule severity score,[2],4
same,EC50,[3],2200 nM
same,S. mansoni adult males 48hr motility assay,"[4]; 48 h, 5µM",zero
same,"S. mansoni adult males visual tox scale, 0 = none, 4=most damaged",[4]; 48hr at 5 µM,4
same,EC50,S. mansoni adult worms,200 nM
O=C(O)C1Cc2c([nH]c3ccccc23)C(c2ccc(Cl)cc2Cl)N1 (centres unmarked) [MMV008138],rescue by IPP supplementation in words,[5],highest level of rescue
same,binding to 6-Phosphogluconolactonase (confirmation),[6],binding
same,apicoplast targeting in words,[7],targets the apicoplast
same,EC50,P. falciparum,350 nM
same,Acetyllysine,[1],0.5387
same,N-acetyl-L-ornithine,[1],0.5503
same,N-carbamoyl-L-aspartate,[1],0.144
same,NADPH,[1],0.4869
same,dAMP,[1],0.6135
same,dCMP,[1],0.1541
same,dTDP,[1],0.7214
same,dTMP,[1],0.483
same,dTTP,[1],0.2857
same,dihydroorotate,[1],0.2096
same,orotate,[1],0.1204
same,DLH,[1],-0.1546
same,DLS/SDL/SID,[1],0.007657
same,PD,[1],0.2545
same,PEE,[1],0.5615
same,PVNF,[1],-0.063
same,3-phosphoglycerate,[1],0.3297
same,ADP-D-glucose,[1],0.3003
same,ATP,[1],0.2312
same,CDP,[1],0.6827
same,D-sedoheptulose-1/7-phosphate,[1],0.414
same,FAD,[1],0.2533
same,GMP,[1],-0.6458
same,NAD+,[1],0.09564
same,NADP+,[1],0.2678
same,Octoluse Bisphosphate,[1],0.757
same,Pyroglutamic acid,[1],-0.1569
same,UDP-D-glucose,[1],0.2273
same,UDP-D-glucuronate,[1],0.2472
same,UDP-N-acetyl-glucosamine,[1],0.2573
same,UDP,[1],0.7153
same,UMP,[1],-0.1378
same,UTP,[1],0.4566
same,a-ketoglutarate,[1],-0.4582
same,citrate/isocitrate,[1],-0.1476
same,cytidine,[1],-0.2541
same,dATP,[1],0.1704
same,dGMP/AMP,[1],0.6095
same,fumarate,[1],0.1788
same,glucose-1/6-phosphate,[1],0.6615
same,glycerate,[1],0.3332
same,guanine,[1],-0.07738
same,guanosine,[1],-0.4378
same,hypoxanthine,[1],-0.1251
same,indole,[1],-0.05929
same,inosine,[1],-0.03831
same,2_3-Diphosphoglyceric acid,[1],0.5774
same,4-phosphopantothenate,[1],0.6234
same,6-phospho-D-gluconate,[1],0.4127
same,FMN,[1],0.5115
same,IMP,[1],0.3745
same,Pyrophosphate,[1],0.4065
same,Sedoheptoluse bisphosphate,[1],0.7391
same,cyclic-AMP,[1],0.217
same,glutathione disulfide,[1],0.4434
same,lactate,[1],-0.4969
same,myo-inositol,[1],0.6581
same,nicotinate,[1],-0.1339
same,ornithine,[1],0.07192
same,phosphoenolpyruvate,[1],0.04449
same,pyruvate,[1],-0.3198
same,ribose-phosphate,[1],0.3445
same,sarcosine/alanine,[1],0.05421
same,sn-glycerol-3-phosphate,[1],-0.3078
same,succinate/methylmalonic acid,[1],0.03332
same,uridine,[1],-0.07029
same,xanthosine,[1],-0.1854
